Reference: the supplement of paper PMC11208160

Test: recombinant barcode read abundance after kanamycin selection (control-corrected) (log10(CPM+1)); higher = more efficient recombination; sequences stand for … in AGTGCAGAGAAAATCGGCCAGTTTTCTCTGCCTGCAGTCCGCATGCCGT…ATTTATGCAGCGGACTGCCTTTCTCCCAAAGTGATAAACCGGACAGTATCATGGACCGGTTTTCCCGGTAATCCGTATTTGCAAGGTTGGTTTCACT; site = the 11-nt target
How it was run: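 Recombination efficiency comes from barcode counts at recombinant junctions, converted to counts per million, averaged and corrected against the control. Values appear as log10(CPM+1). They were obtained from a pooled E. coli screen in which each oligo paired a target with an IS621 bridge RNA target-binding loop, and cells were plated in duplicate on chloramphenicol/ampicillin LB agar or on chloramphenicol/ampicillin/kanamycin with 0.1 mM IPTG.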

Row | Sequence | recombinant barcode read abundance (log10)
1 | GGGCGGACTTGGGTTCTAACCTGTTGCGGAT [GGGCGGACTCC_LTGcore_CT_RTGcore_AT] (site GGGCGGACTCC) (LTG core: CT, RTG core: AT) | 0.0401
2 | GGGCGGACTTGGGTTCTAACCTGTTGCGGCA [GGGCGGACTCC_LTGcore_CT_RTGcore_TG] (site GGGCGGACTCC) (LTG core: CT, RTG core: TG) | 0.146
3 | GGGCGGAGATGGGTTCTAACCTGTTGCGGAG [GGGCGGACTCC_LTGcore_GA_RTGcore_CT] (site GGGCGGACTCC) (LTG core: GA, RTG core: CT) | 0.539
4 | GGGCGGAGCTGGGTTCTAACCTGTTGCGGAG [GGGCGGACTCC_LTGcore_GC_RTGcore_CT] (site GGGCGGACTCC) (LTG core: GC, RTG core: CT) | 0.0821
5 | GGGCGGAGGTGGGTTCTAACCTGTTGCGGAG [GGGCGGACTCC_LTGcore_GG_RTGcore_CT] (site GGGCGGACTCC) (LTG core: GG, RTG core: CT) | 0.0907
6 | GGGCGGAGGTGGGTTCTAACCTGTTGCGGCC [GGGCGGACTCC_LTGcore_GG_RTGcore_GG] (site GGGCGGACTCC) (LTG core: GG, RTG core: GG) | 0.502
7 | GGGCGGATATGGGTTCTAACCTGTTGCGGAG [GGGCGGACTCC_LTGcore_TA_RTGcore_CT] (site GGGCGGACTCC) (LTG core: TA, RTG core: CT) | 0.0954
8 | GGGCGGATATGGGTTCTAACCTGTTGCGGTA [GGGCGGACTCC_LTGcore_TA_RTGcore_TA] (site GGGCGGACTCC) (LTG core: TA, RTG core: TA) | 0.0888
9 | GGGCGGATGTGGGTTCTAACCTGTTGCGGCA [GGGCGGACTCC_LTGcore_TG_RTGcore_TG] (site GGGCGGACTCC) (LTG core: TG, RTG core: TG) | 0.182
10 | GGGCGTGACTGGGTTCTAACCTGTTGCCTAG [GGGCGTGCTAG_LTGcore_AC_RTGcore_CT] (site GGGCGTGCTAG) (LTG core: AC, RTG core: CT) | 0.437
11 | GGGCGTGACTGGGTTCTAACCTGTTGCCTGT [GGGCGTGCTAG_LTGcore_AC_RTGcore_AC] (site GGGCGTGCTAG) (LTG core: AC, RTG core: AC) | 0.0793
12 | GGGCGTGAGTGGGTTCTAACCTGTTGCCTCT [GGGCGTGCTAG_LTGcore_AG_RTGcore_AG] (site GGGCGTGCTAG) (LTG core: AG, RTG core: AG) | 0.523
13 | GGGCGTGATTGGGTTCTAACCTGTTGCCTAG [GGGCGTGCTAG_LTGcore_AT_RTGcore_CT] (site GGGCGTGCTAG) (LTG core: AT, RTG core: CT) | 0.308
14 | GGGCGTGCGTGGGTTCTAACCTGTTGCCTCG [GGGCGTGCTAG_LTGcore_CG_RTGcore_CG] (site GGGCGTGCTAG) (LTG core: CG, RTG core: CG) | 0.0415
15 | GGGCGTGCTTGGGTTCTAACCTGTTGCCTAA [GGGCGTGCTAG_LTGcore_CT_RTGcore_TT] (site GGGCGTGCTAG) (LTG core: CT, RTG core: TT) | 0.104
16 | GGGCGTGCTTGGGTTCTAACCTGTTGCCTAC [GGGCGTGCTAG_LTGcore_CT_RTGcore_GT] (site GGGCGTGCTAG) (LTG core: CT, RTG core: GT) | 0.107
17 | GGGCGTGCTTGGGTTCTAACCTGTTGCCTAG [GGGCGTGCTAG_LTGcore_CT_RTGcore_CT] (site GGGCGTGCTAG) (LTG core: CT, RTG core: CT) | 1.41

Row | Sequence | recombinant barcode read abundance (log10)
18 | GGGCGTGCTTGGGTTCTAACCTGTTGCCTAT [GGGCGTGCTAG_LTGcore_CT_RTGcore_AT] (site GGGCGTGCTAG) (LTG core: CT, RTG core: AT) | 1.05
19 | GGGCGTGCTTGGGTTCTAACCTGTTGCCTGA [GGGCGTGCTAG_LTGcore_CT_RTGcore_TC] (site GGGCGTGCTAG) (LTG core: CT, RTG core: TC) | 1.02
20 | GGGCGTGCTTGGGTTCTAACCTGTTGCCTGT [GGGCGTGCTAG_LTGcore_CT_RTGcore_AC] (site GGGCGTGCTAG) (LTG core: CT, RTG core: AC) | 0.536
21 | GGGCGTGCTTGGGTTCTAACCTGTTGCCTTT [GGGCGTGCTAG_LTGcore_CT_RTGcore_AA] (site GGGCGTGCTAG) (LTG core: CT, RTG core: AA) | 0.509
22 | GGGCGTGTCTGGGTTCTAACCTGTTGCCTGA [GGGCGTGCTAG_LTGcore_TC_RTGcore_TC] (site GGGCGTGCTAG) (LTG core: TC, RTG core: TC) | 0.157
23 | GGGCGTGTGTGGGTTCTAACCTGTTGCCTCA [GGGCGTGCTAG_LTGcore_TG_RTGcore_TG] (site GGGCGTGCTAG) (LTG core: TG, RTG core: TG) | 0.0289
24 | GGTGCCCACTGGGTTCTAACCTGTTGCCGAG [GGTGCCCCTCG_LTGcore_AC_RTGcore_CT] (site GGTGCCCCTCG) (LTG core: AC, RTG core: CT) | 0.416
25 | GGTGCCCATTGGGTTCTAACCTGTTGCCGAG [GGTGCCCCTCG_LTGcore_AT_RTGcore_CT] (site GGTGCCCCTCG) (LTG core: AT, RTG core: CT) | 0.111
26 | GGTGCCCCTTGGGTTCTAACCTGTTGCCGAA [GGTGCCCCTCG_LTGcore_CT_RTGcore_TT] (site GGTGCCCCTCG) (LTG core: CT, RTG core: TT) | 0.481
27 | GGTGCCCCTTGGGTTCTAACCTGTTGCCGAG [GGTGCCCCTCG_LTGcore_CT_RTGcore_CT] (site GGTGCCCCTCG) (LTG core: CT, RTG core: CT) | 1.46
28 | GGTGCCCCTTGGGTTCTAACCTGTTGCCGCA [GGTGCCCCTCG_LTGcore_CT_RTGcore_TG] (site GGTGCCCCTCG) (LTG core: CT, RTG core: TG) | 0.0728
29 | GGTGCCCCTTGGGTTCTAACCTGTTGCCGTT [GGTGCCCCTCG_LTGcore_CT_RTGcore_AA] (site GGTGCCCCTCG) (LTG core: CT, RTG core: AA) | 0.0623
30 | GTCGCCCACTGGGTTCTAACCTGTTGCTAGT [GTCGCCCCTTA_LTGcore_AC_RTGcore_AC] (site GTCGCCCCTTA) (LTG core: AC, RTG core: AC) | 0.348
31 | GTCGCCCATTGGGTTCTAACCTGTTGCTAAT [GTCGCCCCTTA_LTGcore_AT_RTGcore_AT] (site GTCGCCCCTTA) (LTG core: AT, RTG core: AT) | 0.182
32 | GTCGCCCCTTGGGTTCTAACCTGTTGCTAGT [GTCGCCCCTTA_LTGcore_CT_RTGcore_AC] (site GTCGCCCCTTA) (LTG core: CT, RTG core: AC) | 0.644
33 | GTCGCCCCTTGGGTTCTAACCTGTTGCTATC [GTCGCCCCTTA_LTGcore_CT_RTGcore_GA] (site GTCGCCCCTTA) (LTG core: CT, RTG core: GA) | 0.434
34 | GTCGCCCTATGGGTTCTAACCTGTTGCTAAG [GTCGCCCCTTA_LTGcore_TA_RTGcore_CT] (site GTCGCCCCTTA) (LTG core: TA, RTG core: CT) | 0.0747
